Where two headings read alike, the source gives them in different places.
Experiments:
[1] = test system: resistant green rice leafhopper (collected at Nakagawara); test: Test 3: Effect on Resistant Green Rice Leafhopper (collected at Nakagawara); assay type: in vivo, Nephotettix cincticeps Uhler (Green rice leafhopper); settings: Nephotettix cincticeps, 24 h, read-out: Mortality (%), Green Rice Leafhopper Collected at Nakagawara
Experimental: (§1) To a mixture of 20 parts of the compound of the present invention and 20 parts of Sorpol SM-200 (registered tradename for the product supplied by Toho Chemical Industrial Co., Ltd.) was added 60 parts of xylol, and the mixture was suffciently blended. The obtained emulsifiable concentrate was diluted at a predetermined concentration with distilled water, and the obtained dilution was used.
(§2) Seedlings (having 2 to 3 leaves) of paddy rice were hydroponically cultured in a pot having a diameter of 5 cm. A chemical dilution having a concentration of 100 or 20 ppm, prepared in the same manner as described in Test 1, was applied with a sprayer at a rate of 3 ml per pot. The treated seedlings were air-dried and covered with a metal net cylinder, and female adults of resistant green rice leafhopper (collected at Nakagawara) and sensitive green rice leafhopper (collected at Chigasaki) were set, respectively, free in the pot at a density of 10 adults per pot. After 24 hours, the numbers of killed and living adults were counted and the mortality was calculated. The test was made on three pots and the average value was calculated.

[2] = Test 9: Toxicity Test (acute oral toxicity, mice); settings: mouse, in vivo, po
Experimental: A predetermined amount of a solution or suspension of a test compound in corn oil was orally administered to male mice having a body weight of 19 to 23 g (0.2 ml per 10 g of the body weight). After 7 days, the number of killed mice was counted and the influences on the mice were examined.

diamond back moth = test: Test 4: Effect on Diamond Back Moth; assay type: in vivo; settings: Plutella
Experimental: as §1
Cabbage leaves were spread in a plastic cup, and 10 third-instar larvae of diamond back moth were set free in the cup.
A chemical dilution having a concentration of 100 or 20 ppm, prepared in the same manner as described in Test 1, was applied from an applicator at a rate of 3 ml per cup.
After scattering of the chemical dilution, the cup was covered, and after 24 hours, the numbers of killed and living larvae were counted and the mortality was calculated. The test was made on three cups and the average value was calculated.

tobacco cutworm [3] = test: Test 1: Effect on Tobacco Cutworm (leaf immersion), mortality after 24 hours; assay type: in vivo; settings: second-instar larvae, 25° C
Experimental: as §1
An emulsifiable concentrate of a test compound prepared according to the method described in Formulation Example 1 was diluted to a concentration of 100 or 20 ppm. Sweet-potato leaves were immersed in the dilution for 10 seconds, air-dried and placed in a plastic cup having a diameter of 10 cm. Then second-instar larvae of tobacco cutworm were set free in the cup. The cup was allowed to stand still in a thermostat chamber maintained at 25° C. After 24 hours, the numbers of killed and living larvae were counted and the mortality was calculated. The obtained result was expressed by an average value obtained from the mortality calculated in three test cups.

[4] = test system: sensitive green rice leafhopper (collected at Chigasaki); test: whole plant or invertebrate; assay type: in vivo; settings: Nephotettix cincticeps, sensitive female adults, 24 hours, read-out: Mortality (%), Green Rice Leafhopper Collected at Chigasaki
Experimental: as §1, §2

tobacco cutworm [5] = test: Test 2: Tobacco Cutworm Larva Dipping Test, mortality after 24 hours; assay type: in vivo
Experimental: as §1
A dilution having a chemical concentration of 100 or 20 ppm was prepared in the same manner as described in Test 1.
Second-instar and fifth-instar larvae of tobacco cutworm were dipped in the dilution for 5 seconds, and the excessive dilution was removed by a filter paper. Then, the larvae were set free in a plastic cup and an artificial diet was supplied thereto. The cup was allowed to stand still in a thermostat chamber maintained at 25° C. After 24 hours, the numbers of the killed and living larvae were counted and the mortality was calculated. The test was made on three cups and the result was expressed by an average value.

German cockroach = test: Test 7: Effect on German Cockroach; assay type: in vivo; settings: Blattella germanica, male adults, agonized and killed after 24 hours, read-out: Mortality (%); for mortality at 10 mg/m2: 10 mg/m^2; for mortality at 50 mg/m2: 50 mg/m^2
Experimental: as §1
The bottom face of a high Petri dish having a diameter of 9 cm and a height of 9 cm was treated with 50 or 10 mg/m^2 of a test compound and the dish was air-dried. In order to prevent the adults from escaping from the dish, the inner wall of the dish was treated with butter. Then, 10 male adults of German cockroach were set free in each dish, and the dish was placed in a thermostat chamber maintained at 25° C. After 24 hours, the number of agonized and killed adults was counted. The test was made on two dishes and the average value was calculated.

[6] = 20 ppm, third-instar larvae, 24 hours, read-out: Mortality (%)
[7] = 100 ppm, third-instar larvae, 24 hours, read-out: Mortality (%)
[8] = 24 h, read-out: Motality (%), Fifth-Instar Larvae

SMILES | mortality at 20 ppm [1] | mortality at 100 ppm [1] | LD50 at 168 h [2] | mortality at 20 ppm (diamond back moth; [6]) | mortality at 100 ppm (diamond back moth; [7]) | mortality at 20 ppm (tobacco cutworm [3]) | mortality at 100 ppm (tobacco cutworm [3]) | mortality at 20 ppm [4] | mortality at 100 ppm [4] | also measured
CCOc1ccc(C(C)(C)COCc2cccc(Oc3ccc(Br)cc3)c2)cc1 [Compound 66, 3-(4-Bromophenoxy)benzyl 2-(4-ethoxyphenyl)-2-methylpropyl ether] | 100% | 100% | > 500 mg/kg | 60% | 100% | 100% | 100% | 100% | 100% | 
CC(=O)c1ccc(C(C)(C)COCc2cccc(Oc3ccccc3)c2)cc1 [Compound 60, 3-Phenoxybenzyl 2-(4-acetylphenyl)-2-methylpropyl ether] | 90% | 100% | > 500 mg/kg |  |  | 80% | 100% | 60% | 100% | 
CCOC(=O)c1ccc(C(C)(C)COCc2cccc(Oc3ccccc3)c2)cc1 [Compound 85, 3-Phenoxybenzyl 2-(4-ethoxycarbonylphenyl)-2-methylpropyl ether] | 100% | 100% | > 500 mg/kg |  |  | 80% | 100% | 100% | 100% | 
CC(C)(COCc1cccc(Oc2ccccc2)c1)c1ccc(OCCCl)cc1 [Compound 108, 3-Phenoxybenzyl 2-[4-(2-chloroethoxy)phenyl]-2-methylpropyl ether] | 100% | 100% | > 500 mg/kg |  |  | 100% | 100% | 95% | 100% | 
CNC(=O)ON=C(C)SC [Comparative Compound (f), S-methyl N-(methylcarbamoyloxy)thioacetoamidate, reference compound] |  |  | 28 mg/kg |  |  |  |  |  |  | mortality at 20 ppm (diamond back moth; 24 h): 0%; mortality at 100 ppm (diamond back moth; 24 h): 10%; mortality at 20 ppm (tobacco cutworm [5]; [8]): 0%; mortality at 100 ppm (tobacco cutworm [5]; [8]): 80%; mortality at 20 ppm (tobacco cutworm [5]; 24 h, read-out: Motality (%), Second-Instar Larvae): 30%
CCOc1ccc(Oc2cccc(COCC(C)(C)c3ccc(Cl)cc3)c2)cc1 [Compound 94, 3-(4-Ethoxyphenoxy)benzyl 2-(4-chlorophenyl)-2-methylpropyl ether] | 100% | 100% | > 500 mg/kg | 80% | 100% | 100% | 100% | 100% | 100% | 
CCOc1c(C)cc(C(C)(C)COCc2cccc(Oc3ccccc3)c2)cc1C [Compound 97, 3-Phenoxybenzyl 2-(4-ethoxy-3,5-dimethylphenyl)-2-methylpropyl ether] | 100% | 100% | > 500 mg/kg |  |  | 100% | 100% | 100% | 100% | 
CCOC(C)c1ccc(C(C)(C)COCc2cccc(Oc3ccccc3)c2)cc1 (stereo not shown) [Compound 84, 3-Phenoxybenzyl 2-[4-(1-ethoxyethyl)phenyl]-2-methylpropyl ether] |  |  | > 500 mg/kg | 60% | 100% |  |  |  |  | 
CCOc1ccc(Oc2cccc(COCC(C)(C)c3ccc(OCC)cc3)c2)cc1 [Compound 101, 3-(4-Ethoxyphenoxy)benzyl 2-(4-ethoxyphenyl)-2-methylpropyl ether] | 100% | 100% | > 500 mg/kg | 100% | 100% | 100% | 100% | 100% | 100% | mortality at 20 ppm (tobacco cutworm [5]; 20 ppm, fifth-instar larvae, 24 hours, read-out: Motality (%), Fifth-Instar Larvae): 100%; mortality at 20 ppm (tobacco cutworm [5]; 20 ppm, second-instar larvae, 24 hours, read-out: Motality (%), Second-Instar Larvae): 100%; mortality at 100 ppm (tobacco cutworm [5]; 100 ppm, fifth-instar larvae, 24 hours, read-out: Motality (%), Fifth-Instar Larvae): 100%; mortality at 100 ppm (tobacco cutworm [5]; 100 ppm, second-instar larvae, 24 hours, read-out: Motality (%), Second-Instar Larvae): 100%
CC(C)(COCc1cccc(Oc2ccc(F)cc2)c1)c1ccc(F)c(Cl)c1 [Compound 58, 3-(4-Fluorophenoxy)benzyl 2-(3-chloro-4-fluorophenyl)-2-methylpropyl ether] | 100% | 100% | > 500 mg/kg |  |  | 100% | 100% | 100% | 100% | 
CC(C)(COCc1cccc(Oc2ccccc2)c1)c1ccc(OC2CCCC2)cc1 [Compound 61, 3-Phenoxybenzyl 2-(4-cyclopentyloxyphenyl)-2-methylpropyl ether] | 100% | 100% | > 500 mg/kg |  |  |  |  | 100% | 100% | mortality at 10 mg/m2 (German cockroach): 70%; mortality at 50 mg/m2 (German cockroach): 100%
Cc1ccc2cc(C(C)(C)COCc3cccc(Oc4ccccc4)c3)ccc2c1 [Compound 71, 3-Phenoxybenzyl 2-(6-methyl-2-naphthyl)-2-methylpropyl ether] | 100% | 100% | > 500 mg/kg | 60% | 100% |  |  | 100% | 100% | 
CCC(C)Oc1ccc(C(C)(C)COCc2cccc(Oc3ccccc3)c2)cc1 (stereo not shown) [Compound 70, 3-Phenoxybenzyl 2-[4-(sec-butoxy)phenyl]-2-methylpropyl ether] | 100% | 100% | > 500 mg/kg |  |  | 90% | 100% | 100% | 100% | 
Cc1ccc(C(C)(C)COCc2cccc(Oc3ccccc3)c2)cc1C [Compound 109] | 90% | 100% | > 500 mg/kg |  |  |  |  | 70% | 100% | mortality at 10 mg/m2 (German cockroach): 100%; mortality at 50 mg/m2 (German cockroach): 100%
CC(C)(COCc1cccc(Oc2ccccc2)c1)c1ccc(C#N)cc1 [Compound 54, 3-Phenoxybenzyl 2-(4-cyanophenyl)-2-methylpropyl ether] |  |  | > 500 mg/kg |  |  | 100% | 100% |  |  | 
CCSc1ccc(C(C)(C)COCc2cccc(Oc3ccccc3)c2)cc1 [Compound 100, 3-Phenoxybenzyl 2-(4-ethylthiophenyl)-2-methylpropyl ether] | 95% | 100% | > 500 mg/kg |  |  | 80% | 100% | 80% | 100% | 
CCOc1ccc(C(C)(C)COCc2cccc(Oc3ccccc3)c2)cc1OC [Compound 99, 3-Phenoxybenzyl-2-(4-ethoxy-3-methoxyphenyl)-2-methylpropyl ether] |  |  | > 500 mg/kg | 80% | 100% | 100% | 100% |  |  | 
